Results on two compounds are retold here after ChEMBL document CHEMBL1129327, “Diphenylpropionic acids as new AT1 selective angiotensin II antagonists” (J Med Chem, 1996).

In test [1] the test system is Rattus norvegicus. Briefly: (§1) In vivo inhibitory percentage of pressor response induced by exogenous submaximal dose of angiotensin -II […] administered iv to pithed rats. It is filed as functional.
Test [2] addresses T1, Angiotensin II receptor (AT-1) type-1 (Rattus norvegicus, UniProt P29089+P25095).
T1 sequence (P29089 whole entry): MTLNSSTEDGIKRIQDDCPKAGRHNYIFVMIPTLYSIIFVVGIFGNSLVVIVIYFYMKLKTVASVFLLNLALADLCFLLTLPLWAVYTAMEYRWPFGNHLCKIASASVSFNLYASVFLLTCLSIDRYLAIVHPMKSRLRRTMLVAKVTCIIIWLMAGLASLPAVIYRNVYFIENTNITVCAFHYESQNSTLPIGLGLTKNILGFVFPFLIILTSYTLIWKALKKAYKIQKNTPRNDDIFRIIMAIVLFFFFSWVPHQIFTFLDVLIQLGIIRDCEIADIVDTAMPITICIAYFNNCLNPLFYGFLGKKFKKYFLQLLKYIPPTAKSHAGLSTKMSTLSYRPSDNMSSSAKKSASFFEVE
T1 sequence (P25095 whole entry): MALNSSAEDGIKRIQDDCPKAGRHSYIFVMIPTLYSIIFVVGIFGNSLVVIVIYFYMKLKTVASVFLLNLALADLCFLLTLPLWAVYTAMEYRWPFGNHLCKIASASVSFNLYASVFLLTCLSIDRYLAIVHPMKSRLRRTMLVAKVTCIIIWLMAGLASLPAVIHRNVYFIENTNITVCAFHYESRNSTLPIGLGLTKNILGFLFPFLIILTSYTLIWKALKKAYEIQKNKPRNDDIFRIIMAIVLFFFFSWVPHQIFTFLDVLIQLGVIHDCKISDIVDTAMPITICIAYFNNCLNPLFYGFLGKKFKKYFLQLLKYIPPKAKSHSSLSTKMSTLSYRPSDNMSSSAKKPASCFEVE
Put plainly: Inhibitory concentration was evaluated by measuring displacement of [3H]AII from rat liver Angiotensin II receptor, type 1. A general note: Loss of bound radioactivity is the signal in a displacement assay; it reports binding, not function.

Test [3] deals with Rattus norvegicus. The test is described as §1. In kind it is functional. This is another data set of the same source.
The species named for test [4] is Oryctolagus cuniculus. Briefly: Antagonism against A-2 induced contraction of aortic rings from rabbit. It is filed as functional. Conditions: Aorta, read-out: pA2 (converted).
For test [5], the species on record is Oryctolagus cuniculus. Briefly: Antagonism against A-2 induced contraction of aortic rings of rabbit. Conditions: read-out: pA2 (converted).

`CCc1nc2c(C)cc(C)nc2n1Cc1ccc([C@H](c2ccccc2)[C@H](CC)C(=O)O)cc1`: the figures for the Inhibition in the test with Rattus norvegicus [1] and in the test on Rattus norvegicus [3] were 86.1% and 73.3%, respectively. Besides, in test [2], the IC50 (commonly the concentration at which inhibition is half-maximal) was 50 nM. Besides, the Kb in the test filed under Oryctolagus cuniculus [4] is 3.89 nM.

As for `CCc1nc2c(C)cc(C)nc2n1Cc1ccc([C@H](c2ccccc2)[C@H](C)C(=O)O)cc1` (stereo in doubt; 36g), the Inhibition (as a rule, the relative decrease from the control value, in per cent) in the test on Rattus norvegicus [1] stood at 84.8%; in the test on Rattus norvegicus [3] it was 68.5%. In addition, the Kb in the test filed under Oryctolagus cuniculus [5] was 2.04 nM. In test [2], this compound yielded an IC50 of 69 nM.
